Read-outs that look alike come from different tables or passages of the source.
Legend:
[1] = Phase 1/2a study, plasma pharmacokinetics of PF-07104091; type: in vivo, human; details: human, plasma, po; for Cmax: read-out: Cmax; for half-life: read-out: t1/2 (converted)
Text: Blood samples will be collected for measurement of plasma concentrations of PF-07104091 as specified in the protocol. Samples will be used to evaluate the PK of PF-07104091. Samples collected for analyses of PF-07104091 plasma concentration may also be used to evaluate safety or efficacy aspects related to concerns arising during or after the study, for metabolite identification and/or evaluation of the bioanalytical method, or for other internal exploratory purposes.
Plasma PF-07104091 concentrations will be summarized descriptively (n, mean, standard deviation, coefficient of variation, median, minimum, maximum, geometric mean and its associated coefficient of variation) by dose, cycle, day and nominal time. Individual participant plasma PF-07104091 concentration-time data within a dose interval (with exception of the food effect substudy) after Cycle 1 Day 1 and Cycle 1 Day 15 will be analyzed using noncompartmental methods to determine single and multiple dose PK parameters. For participants in the food effect substudy, individual plasma PF-07104091 concentration-time data after Cycle 1 Day 15 and Cycle 1 Day 16 will be analyzed using noncompartmental methods to determine multiple dose PK parameters. For Part 1 of the study, single dose PK parameters to be estimated will include the Cmax, Tmax, and AUClast, and if data permit, t1/2, CL/F, and Vz/F. Multiple dose PK parameters to be estimated will include Cmax,ss, Tmax,ss, AUCT,ss, Cmin,ss, CL/F,ss, and if data permit, V/Fss, t1/2, and Rac. For Part 2 of the study (with exception of the food effect substudy), single dose PK parameters to be estimated will include Cmax, Tmax and AUClast. Multiple dose PK parameters to be estimated will include Cmax,ss, Tmax,ss, AUClast, Cmin,ss, and Rac. The single dose and steady state PK parameters will be summarized descriptively (n, mean, standard deviation, coefficient of variation, median, minimum, maximum, geometric mean and its associated coefficient of variation) by dose level, cycle and day. For participants in the food effect substudy, multiple dose PK parameters to be estimated will include Cmax,ss, AUCT,ss, Tmax,ss, Cmin,ss, CL/Fss, and if data permit, V/Fss and t1/2.
An ongoing Phase 1/2a, open-label, multicenter, multiple dose study is being conducted to determine the safety, tolerability, PK, PD, and preliminary anti-tumor activity of PF-07104091 as a single agent and in combination with endocrine therapy. PF-07104091 is administered orally twice daily (BID) during 28-day cycles.
Preliminary concentration-time data of PF-07104091 following single and multiple oral administration at 75 mg BID to 500 mg BID as monotherapy or in combination with endocrine therapy alone or in combination with palbociclib and endocrine therapy were available from 44 participants with advanced solid tumors and HR-positive HER2-negative advanced or metastatic breast cancer. The preliminary concentration-time data were analyzed by noncompartmental approach using actual PK sampling times.
[…] Individual values are listed when the number of participants with available parameters is less than 3.

ST941PBR PDX = experiment: In vivo efficacy, palbociclib-resistant ST941PBR PDX model; details: Day 28, 150 mg/kg BID PO, 150 mg/kg
Description: Female NSG mice (Jackson Lab) were subcutaneously implanted with fragment (27 mm^3 to 64 mm^3 size) into the dorsal region. All mice for T47D, HCC1428 and ST941 PBR studies were supplemented with 8.5 μg/mL estradiol water (β-Estradiol Sigma-Aldrich, cat #E2758-5G) and gave ad libitum till end of study. For the in vivo efficacy studies, tumor volume and body weights were measured twice a week. Tumor volume was calculated using the [(Length×Width×Width)/2)] formula. TGI was calculated as 100*(1−ΔT/ΔC). The ΔC (ΔT) was obtained by subtracting the mean tumor burden in the vehicle (treated) group on the first day of treatment (Day 0) from the mean tumor burden in vehicle (treated) group on the assessment day. Statistical analysis was performed using ANCOVA when the mean tumor volume in vehicle treated mice reached tumor cutoff size.
The ST941 PBR palbociclib resistant model was obtained from XENOSTART™ LLC, San Antonio, Texas. We established model in house by continuous treatment of the ST941 PBR tumor bearing mice with PD-0332991 at 50 mg/kg, PO QD plus fulvestrant at 10 mg/kg, SC twice in the first week, then weekly thereafter. To propagate donors for the TGI study, tumors were transplanted to recipient mice. One week after the re-implantation, the recipient mice received continuous treatment with palbociclib plus fulvestrant (dosing schedule described above). After 1 to 2 serial in vivo propagation with the same treatment regimen, the resistant tumors in the range of 700 to 800 mm^3 were re-implanted for a study expansion. The remaining tumor fragments were viably frozen for future use.
The live donor mice were established by implanting ST941 PBR (p11) tumor fragments. Once reaching a range of 700 to 800 mm^3, the donor tumors were subsequently transplanted into secondary recipient mice for a study expansion. To maintain the resistant clones, the ST941 PBR tumor bearing mice were treated with PD-0332991 at 50 mg/kg, PO. QD plus fulvestrant at 10 mg/kg, SC twice in the first week, then weekly afterwards for 10 weeks. […] TGI was assessed on Day 28 post first dose.

[2] = 150 mg, Cycle 1 Day 1, single oral dose, 150 mg BID monotherapy, geometric mean (CV %)
[3] = 150 mg, Cycle 1 Day 15, repeated BID oral, 150 mg BID monotherapy, geometric mean (CV %)
[4] = 225 mg, Cycle 1 Day 1, single oral dose, 225 mg BID monotherapy, geometric mean (CV %)
[5] = 225 mg, Cycle 1 Day 15, repeated BID oral, 225 mg BID monotherapy, geometric mean (CV %)
[6] = 300 mg, Cycle 1 Day 1, single oral dose, 300 mg BID monotherapy, geometric mean (CV %)
[7] = 300 mg, Cycle 1 Day 15, repeated BID oral, 300 mg BID monotherapy, geometric mean (CV %)
[8] = 375 mg, Cycle 1 Day 1, single oral dose, 375 mg BID monotherapy, individual values
[9] = 500 mg, Cycle 1 Day 1, single oral dose, 500 mg BID monotherapy, geometric mean (CV %)
[10] = 500 mg, Cycle 1 Day 15, repeated BID oral, 500 mg BID monotherapy, individual value, N = 1

COCc1cc(C(=O)Nc2cc([C@H]3CC[C@@H](OC(=O)NC(C)C)C3)[nH]n2)n(C)n1 [PF-07104091, (1R,3S)-3-[3-({[3-(methoxymethyl)-1-methyl-1H-pyrazol-5-yl]carbonyl}amino)-1H-pyrazol-5-yl]cyclopentyl propan-2-ylcarbamate]
Cmax ([1]; 75 mg, Cycle 1 Day 15, repeated BID oral, 75 mg BID monotherapy, individual values): 0.714 µg/mL | Tmax ([1]; 75 mg, Cycle 1 Day 15, repeated BID oral, 75 mg BID monotherapy, individual values, read-out: Tmax): 1.1 h | AUC(0-t) [1, 2]: 4.48 µg·h/mL | Cmax [1, 2]: 0.739 µg/mL | Tmax ([1]; 150 mg, Cycle 1 Day 1, single oral dose, 150 mg BID monotherapy, median (range), read-out: Tmax): 2 h | half-life ([1]; 150 mg, Cycle 1 Day 1, single oral dose, 150 mg BID monotherapy, n = 1): 2.8 h | AUC(0-t) [1, 3]: 8.02 µg·h/mL | Cmax [1, 3]: 1.32 µg/mL | Tmax ([1]; 150 mg, Cycle 1 Day 15, repeated BID oral, 150 mg BID monotherapy, median (range), read-out: Tmax): 2.2 h | half-life ([1]; 150 mg, Cycle 1 Day 15, repeated BID oral, 150 mg BID monotherapy, n = 1): 1.9 h | half-life ([1]; 225 mg, Cycle 1 Day 1, single oral dose, 225 mg BID monotherapy, arithmetic mean ± SD): 2.2 ± 0.7 h | AUC(0-t) [1, 4]: 6.63 µg·h/mL | Cmax [1, 4]: 1.39 µg/mL | Tmax ([1]; 225 mg, Cycle 1 Day 1, single oral dose, 225 mg BID monotherapy, median (range), read-out: Tmax): 3.9 h | half-life ([1]; 225 mg, Cycle 1 Day 15, repeated BID oral, 225 mg BID monotherapy, arithmetic mean ± SD): 2.6 ± 0.9 h | AUC(0-t) [1, 5]: 10.7 µg·h/mL | Cmax [1, 5]: 2.35 µg/mL | Tmax ([1]; 225 mg, Cycle 1 Day 15, repeated BID oral, 225 mg BID monotherapy, median (range), read-out: Tmax): 2 h | half-life ([1]; 300 mg, Cycle 1 Day 1, single oral dose, 300 mg BID monotherapy, arithmetic mean ± SD): 2 ± 0.6 h | AUC(0-t) [1, 6]: 9.11 µg·h/mL | Cmax [1, 6]: 1.82 µg/mL | Tmax ([1]; 300 mg, Cycle 1 Day 1, single oral dose, 300 mg BID monotherapy, median (range), read-out: Tmax): 2 h | half-life ([1]; 300 mg, Cycle 1 Day 15, repeated BID oral, 300 mg BID monotherapy, arithmetic mean ± SD): 2.8 ± 0.2 h | AUC(0-t) [1, 7]: 12.5 µg·h/mL | Cmax [1, 7]: 2.57 µg/mL | Tmax ([1]; 300 mg, Cycle 1 Day 15, repeated BID oral, 300 mg BID monotherapy, median (range), read-out: Tmax): 2.1 h | AUC(0-t) [1, 8]: 11.6 µg·h/mL | Cmax [1, 8]: 2.52 µg/mL | Tmax ([1]; 375 mg, Cycle 1 Day 1, single oral dose, 375 mg BID monotherapy, individual values, read-out: Tmax): 4 h | half-life ([1]; 375 mg, Cycle 1 Day 1, single oral dose, 375 mg BID monotherapy, n = 1): 1.5 h | AUC(0-t) [1, 9]: 15.2 µg·h/mL | Cmax [1, 9]: 2.98 µg/mL | Tmax ([1]; 500 mg, Cycle 1 Day 1, single oral dose, 500 mg BID monotherapy, median (range), read-out: Tmax): 5.3 h | AUC(0-t) [1, 10]: 21.5 µg·h/mL | Cmax [1, 10]: 4.42 µg/mL | Tmax ([1]; 500 mg, Cycle 1 Day 15, repeated BID oral, 500 mg BID monotherapy, individual value, N = 1, read-out: Tmax): 4 h | Tmax ([1]; oral administration at doses up to 300 mg BID, read-out: median Tmax): 0.5 to 4 h | TGI % (ST941PBR PDX): 34%

Reference: patent US20250127759A1, “METHODS AND DOSING REGIMENS COMPRISING A CDK2 INHIBITOR FOR THE TREATMENT OF CANCER” (PFIZER INC., priority 2021, published 2025)
